The source of these data is patent KR20230059409A, “Egf 유래 신규 펩타이드 및 이의 용도” (고려대학교 산학협력단, priority 2021, dated 2023).

No end group written: not given here.

One assay relates to 인간유래 중간엽줄기세포(hMSC). The experiment in a line: 3D spheroid stem cell migration test (branch sprouting in collagen matrix). The conditions noted are these: peptide in DMEM 10uM / 100uM, 37℃, 16 h; for extent of stem cell branches extending from 3D spheroid (Fig. 2): compared with EGF group or DMEM only. The format is cell-based, human.
In another assay the test system is hMSC. Briefly: 2D traction force microscope stem cell migration test. The format is cell-based, human. The conditions noted are these: 24 h imaging; for effect on stem cell mobility (conclusion of the test): hMSC.

For YCLHDGVSMYIEALDKYACN [JEP4], in the assay on 인간유래 중간엽줄기세포(hMSC), the “length of stem cell branches extending from 3D spheroid, quantified (Fig. 3)” value is “줄기세포 가지가 상대적으로 긴 것으로 나타났다” and the “extent of stem cell branches extending from 3D spheroid (Fig. 2)” value is “줄기세포 가지가 가장 많이 뻗어나간 것을 확인”. Moreover, the “effect on stem cell mobility (conclusion of the test)” value in the assay on hMSC was “줄기세포의 이동성을 증진시키는 효과가 있음”.
For NTKVGYIGEREQYRDLK-NH2 [EGP2], in the assay on 인간유래 중간엽줄기세포(hMSC), the “length of stem cell branches extending from 3D spheroid, quantified (Fig. 3)” value is recorded as “줄기세포 가지가 상대적으로 긴 것으로 나타났다” and the “extent of stem cell branches extending from 3D spheroid (Fig. 2)” value was “줄기세포 가지가 가장 많이 뻗어나간 것을 확인”. In the assay on hMSC (hMSC on collagen-coated PA gel with fluorescent beads, compared among EGF, EGP 2, JEP 4 media), the “stem cell migration speed (Fig. 7 and 8)” value was “속도가 가장 빠른 것으로 나타났다”. The “effect on stem cell mobility (conclusion of the test)” value in the assay with hMSC is reported as “줄기세포의 이동성을 증진시키는 효과가 있음”.
